According to ChEMBL document CHEMBL1151776, “Identification of aquaporin 4 inhibitors using in vitro and in silico methods” (Bioorg Med Chem, 2009):

How the values were obtained:
Type in all cases: cell-based
[1] = system: Oocyte; assay: Inhibition of human aquaporin 4 M23 isoform expressed in Xenopus laevis oocytes at 20 uM
[2] = system: Oocyte; assay: (§1) Inhibition of human aquaporin 4 M23 isoform expressed in Xenopus laevis oocytes
[3] = as §1; settings: oocyte

Row | SMILES | inhibition [1] [%] | Imax [2] [%] | IC50 [3] [µM]
1 | Oc1cnc(Nc2nc3ccccc3o2)[nH]1 | 44 | – | –
2 | NS(=O)(=O)c1cc(Cl)sc1Cl | 11 | – | –
3 | COc1ccccc1OCC(O)CO (centres undefined) | 34 | – | –
4 | O=C(Nc1ccccc1)c1cccnc1 | 26 | – | –
5 | CC/C(=C(\c1ccccc1)c1ccc(OCCN(C)C)cc1)c1ccccc1 | 71 | – | –
6 | NS(=O)(=O)c1ccc(Cl)s1 | 18 | – | –
7 | O=S(=O)(Cc1ccccc1)Nc1nccs1 | 45 | – | –
8 | O=C(Nc1nncs1)c1cccnc1 | 67 | 73 | 3.1
9 | O=C(Nc1nccs1)c1cccnc1 | 30 | – | –
10 | CN(C)CCc1c[nH]c2ccc(Cn3cncn3)cc12 [RIZATRIPTAN] | 52 | 54 | 2.9
11 | CN1CCc2cccc3c2[C@H]1Cc1ccc(O)c(O)c1-3 | 40 | – | –
12 | OCC(O)COCc1ccccc1 (centres undefined) | 11 | – | –
13 | CNS(=O)(=O)Cc1ccc2[nH]cc(CCN(C)C)c2c1 [SUMATRIPTAN] | 54 | 52 | 11
14 | NC(=O)c1nc[nH]c1C(N)=O | 23 | – | –
15 | NC(=O)NCCC[C@H](N)C(=O)O | 0 | – | –
16 | N[C@@H]1CONC1=O | 3 | – | –
17 | CC(C)NC[C@H](O)COc1cccc2ccccc12 | 26 | – | –
18 | CCCC(C)C1(CC)C(=O)NC(=O)NC1=O (centres undefined) | 9 | – | –
